Changes are numbered by the printed parent chain. Where a SMILES comes first, the peptide text is derived from it. Bridges are numbered along the chain shown (N, C = ends).
Key:
Experiment in all cases: Heterologous whole cell competition binding
Conditions in all cases: heterologous competition of 125I-sCT(8-32), whole cells, mean ± S.E.M., SEM
hCTR V375A = molecular target: T1, hCTR V375A (Homo sapiens, UniProt P30988, V375A)
T1 construct: c-Myc (N); expressed in transfected cells
T1 sequence (P30988 25-474 V375A): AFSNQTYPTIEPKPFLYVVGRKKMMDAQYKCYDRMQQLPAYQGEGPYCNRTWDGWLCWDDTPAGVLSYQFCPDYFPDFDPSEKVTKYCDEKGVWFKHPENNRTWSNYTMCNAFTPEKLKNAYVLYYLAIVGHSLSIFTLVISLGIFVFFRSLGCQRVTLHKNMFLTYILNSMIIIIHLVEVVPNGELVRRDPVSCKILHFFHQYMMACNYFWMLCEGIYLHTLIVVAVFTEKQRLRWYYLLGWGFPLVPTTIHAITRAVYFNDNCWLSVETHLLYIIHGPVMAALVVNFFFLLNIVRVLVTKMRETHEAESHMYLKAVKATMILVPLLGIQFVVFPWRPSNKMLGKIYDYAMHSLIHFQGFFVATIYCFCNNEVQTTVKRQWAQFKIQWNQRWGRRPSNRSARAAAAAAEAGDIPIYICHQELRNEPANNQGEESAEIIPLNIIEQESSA
Protocol: (§1) Following overnight incubation non-bound ligand was removed and radioactivity was determined using a gamma counter.
(§2) Data were corrected for radioligand occupancy using the Cheng-Prusoff equation in Prism; as such data are reported as pKi. Emax and EC50 were estimated from concentration-response curves using with a 3-parameter logistic equation in Prism (v7). These values are a composite of functional affinity, efficacy and stimulus response coupling. […] Significance was accepted at P < 0.05.

hCTR L368A = molecular target: T2, hCTR L368A (Homo sapiens, UniProt P30988, L368A)
T2 construct: c-Myc (N); expressed in transfected cells
T2 sequence (P30988 25-474 L368A): T1 sequence (P30988 25-474 V375A) with L344A, A351V
Protocol: as §1, §2

hCTR Y299A = molecular target: T3, hCTR Y299A (Homo sapiens, UniProt P30988, Y299A)
T3 construct: c-Myc (N); expressed in transfected cells
T3 sequence (P30988 25-474 Y299A): T1 sequence (P30988 25-474 V375A) with Y275A, A351V
Protocol: as §1, §2

hCTR L297A = molecular target: T4, hCTR L297A (Homo sapiens, UniProt P30988, L297A)
T4 construct: c-Myc (N); expressed in transfected cells
T4 sequence (P30988 25-474 L297A): T1 sequence (P30988 25-474 V375A) with L273A, A351V
Protocol: as §1, §2

hCTR Y372A = molecular target: T5, hCTR Y372A (Homo sapiens, UniProt P30988, Y372A)
T5 construct: c-Myc (N); expressed in transfected cells
T5 sequence (P30988 25-474 Y372A): T1 sequence (P30988 25-474 V375A) with Y348A, A351V
Protocol: as §1, §2

In the case of CSCC[C@H](NC(=O)CNC(=O)[C@H](CO)NC(=O)[C@H](Cc1ccccc1)NC(=O)[C@H](CCCNC(=N)N)NC(=O)[C@H](Cc1c[nH]cn1)NC(=O)[C@H](Cc1ccccc1)NC(=O)[C@H](CC(N)=O)NC(=O)[C@H](CC(N)=O)NC(=O)[C@H](CC(C)C)NC(=O)[C@H](CC(N)=O)NC(=O)[C@H](CCCNC(=N)N)NC(=O)[C@H](Cc1c[nH]c2ccccc12)NC(=O)[C@H](Cc1ccc(O)cc1)NC(=O)[C@H](C)NC(=O)[C@H](CO)NC(=O)[C@H](CC(C)C)NC(=O)[C@@H](NC(=O)[C@@H]1CSSC[C@H](N)C(=O)N[C@@H](CO)C(=O)N[C@@H](CC(N)=O)C(=O)N[C@@H](CC(C)C)C(=O)N[C@@H](CO)C(=O)N[C@@H]([C@@H](C)O)C(=O)N1)C(C)C)C(=O)NCC(=O)N[C@@H](Cc1ccccc1)C(=O)NCC(=O)N1CCC[C@H]1C(=O)N[C@@H](CCC(=O)O)C(=O)N[C@H](C(=O)N1CCC[C@H]1C(N)=O)[C@@H](C)O [pCT] (H-CSNLSTCVLSAYWRNLNNFHRFSGMGFGPETP-NH2; disulfide 1-7), the Ki (hCTR V375A) is reported as 0.00513 µM, the Ki (hCTR L368A) is reported as 0.00851 µM and the Ki (hCTR Y299A) is reported as 0.0468 µM. For the same compound, the Ki (hCTR L297A) was 0.0155 µM and the Ki (hCTR Y372A) was 0.0282 µM.

— PMC5908784, “Extracellular loops 2 and 3 of the calcitonin receptor selectively modify agonist binding and efficacy” (Biochemical Pharmacology, 2018)
